PMC10387993, “New pyrimidine-N-β-D-glucosides: synthesis, biological evaluation, and molecular docking investigations” (Turkish Journal of Chemistry, 2023)
≈ marks a conversion by molar mass, not a printed value.

How the values were obtained:
Type in all cases: cell-based
[1] = LDH cytotoxic activity assay, C6; settings: rat, C6 glioma cells
Description: (§1) The cell lines were cultured in a cell medium (Dulbecco’s modified eagle’s or RPMI 1640) enriched with 10% (v/v) fetal bovine serum and 2% (v/v) Penicillin-Streptomycin (10,000 U/mL). First, old medium was removed out of the flask when the cells reached approximately 80% confluence. Next, cells were taken from the flasks surface using trypsin-EDTA solution and then subjected to centrifugation. Following, the cell pellet was suspended with fresh media and was inoculated into wells.
(§2) Approximately 5 × 10^3 cells in 100 μL were placed into 96-well plates as triplicates and treated with 25, 50, 75, and 100 μg/mL concentrations of test compounds at 37 °C with 5% CO2 for 24 h. LDH activity was obtained by determining absorbance at 492–630 nm using a microplate reader.

normal FL cells = assay: cells; settings: FL normal cells, MTT
Description: as §1
(§3) A cell suspension containing approximately 1 × 10^4 cells in 100 μL was seeded into the wells of 96-well culture plates. […]. The final volume of the wells was set to 200 μL by medium. Cell proliferation assay was evaluated by MTT (yellow tetrazolium MTT (3-(4,5-dimethylthiazolyl-2)-2,5-diphenyltetrazolium bromide) methods. Briefly, an MTT stock solution (5 mg of MTT/mL of distilled water) was filtered and kept at −20 °C until use. The cells were exposed to an MTT reagent (consisting of one parts of MTT stock solutions and nine parts of fresh RPMI 1640 without phenol red) for 4 h to form MTT formazan dye followed by the dye dissolved in DMSO with Sorenson’s buffer for 30 min at room temperature and then the plate was measured at 560 nm, with 690 nm as a reference interval, using a microplate reader. Each experiment was repeated at least three times for each cell line.
(§4) IC50 value is a concentration that inhibits half of the cells in vitro. The half maximal inhibitory concentration (IC50) of the test and control compounds was calculated using XLfit5 or excel spreadsheet and represent in μM at 95% confidence intervals. The proliferation assay results were expressed as the percent inhibition according to the following formula: % Inhibition = [1 - (Absorbance of Treatments /Absorbance of DMSO) × 100]. Three dose response parameters (GI50, TGI, LC50) were calculated according to the following formulas using the absorbance measurements of time zero (Tz), control growth (C), and test growth in the presence of drug (Ti). Growth inhibition of 50% (GI50) was calculated from [(Ti-Tz)/(C-Tz)] × 100 = 50, which is the drug concentration resulting in a 50% reduction in the net growth increase in control cells during the drug incubation. The drug concentration resulting in total growth inhibition (TGI) was calculated from Ti = Tz. The LC50 indicating a net loss of cells following treatment was calculated from [(Ti-Tz)/Tz] × 100 = −50.

in vitro = settings: human, LC50
Description: as §1, §3, §4

E. faecalis ATCC 29212 = assay: Microdilution MIC assay; settings: Enterococcus faecalis, ATCC29212, 24 h, E. faecalis ATCC 29212, 24 h at 35 °C; read-out: MIC
Description: (§5) MIC values of the compounds against bacterial strains were determined on the basis of a microwell dilution method. […] […]. Growth of microorganisms was determined visually after incubation for 24 h at 35 °C. The lowest concentration at which there was no visible growth (turbidity) was taken as the MIC.

S. gordonii NCTC 7870 = assay: Microdilution MIC assay; settings: Streptococcus gordonii, NCTC7870; S. gordonii NCTC 7870, 24 h at 35 °C
Description: as §5

S. mutans ATCC 35668 = assay: Microdilution MIC assay; settings: Streptococcus mutans, ATCC35668, 24 h, S. mutans ATCC 35668, 24 h at 35 °C; read-out: MIC
Description: as §5

E. coli ESBL ATCC 35218 = assay: Microdilution MIC assay; settings: Escherichia coli, ATCC35218; E. coli ESBL ATCC 35218, 24 h at 35 °C
Description: as §5

E. coli ATCC 25922 = assay: Microdilution MIC assay; settings: Escherichia coli, ATCC25922; E. coli ATCC 25922, 24 h at 35 °C
Description: as §5

[2] = LDH cytotoxic activity assay, HT29; settings: human, HT29 cells
Description: as §1, §2

[3] = LDH cytotoxic activity assay, HeLa; settings: human, HeLa cells
Description: as §1, §2

MCF7 = assay: cells; settings: Homo sapiens
Description: as §1, §3, §4

C6 (Rat brain glioma) = assay: cells; settings: Rattus norvegicus
Description: as §1, §3, §4

HT29 = assay: cells; settings: Homo sapiens
Description: as §1, §3, §4

Hep3B = assay: cells; settings: Homo sapiens
Description: as §1, §3, §4

HeLa = assay: cells; settings: Homo sapiens
Description: as §1, §3, §4

A549 = assay: cells; settings: Homo sapiens
Description: as §1, §3, §4

MIC (E. faecalis ATCC 29212): > 1000 µg/mL | MIC (S. gordonii NCTC 7870): 500 µg/mL (≈ 1180 µM) | MIC (S. mutans ATCC 35668): 1000 µg/mL (≈ 2360 µM) | MIC (E. coli ESBL ATCC 35218): > 1000 µg/mL | MIC (E. coli ATCC 25922): > 1000 µg/mL | GI50 (MCF7; MCF7, MTT): 1.69 µg/mL (≈ 3.98 µM) | IC50 (MCF7; MCF7, MTT, read-out: IC50): > 500 µg/mL | GI50 (C6 (Rat brain glioma); C6, MTT): 9.17 µg/mL (≈ 21.6 µM) | IC50 (C6 (Rat brain glioma); C6, MTT, read-out: IC50): 49.7 µg/mL (≈ 117 µM) | GI50 (HT29; HT-29, HT29, MTT): 2.46 µg/mL (≈ 5.8 µM) | IC50 (HT29; HT-29, HT29, MTT, read-out: IC50): 453 µg/mL (≈ 1070 µM) | GI50 (Hep3B; MTT): 3.85 µg/mL (≈ 9.07 µM) | IC50 (Hep3B; MTT, read-out: IC50): > 500 µg/mL | GI50 (HeLa; MTT): > 500 µg/mL | IC50 (HeLa; MTT, read-out: IC50): > 500 µg/mL | GI50 (A549; A549, MTT): 11.6 µg/mL (≈ 27.3 µM) | IC50 (A549; A549, MTT, read-out: IC50): > 500 µg/mL
SMILES: Cc1ccccc1-c1cc(-c2cccnc2)nc(N[C@@H]2O[C@H](CO)[C@@H](O)[C@H](O)[C@H]2O)n1 [Compound 2, N-[4-(2-methylphenyl)-6-pyridin-3-ylpyrimidin-2-yl]-β-D-glucopyranosylamine]
cytotoxicity at 24 h, 25 μg/mL ([1]; C6, 25 μg/mL): 30.8% | cytotoxicity at 24 h, 50 μg/mL ([1]; C6, 50 μg/mL): 49.8% | cytotoxicity at 24 h, 75 μg/mL ([1]; C6, 75 μg/mL): 72.7% | cytotoxicity at 24 h, 100 μg/mL ([1]; C6, 100 μg/mL): 99.8% | GI50 (normal FL cells): 3.68 µg/mL (≈ 8.67 µM) | IC50 (normal FL cells; read-out: IC50): 457 µg/mL (≈ 1080 µM) | IC (total growth inhibition) (normal FL cells; read-out: TGI): > 500 µg/mL | LC50 (concentration causing 50% net cell loss) (in vitro): > 500 µg/mL | cytotoxicity at 24 h, 25 μg/mL ([2]; HT29, 25 μg/mL): 27.7% | cytotoxicity at 24 h, 50 μg/mL ([2]; HT29, 50 μg/mL): 44.8% | cytotoxicity at 24 h, 75 μg/mL ([2]; HT29, 75 μg/mL): 72.7% | cytotoxicity at 24 h, 100 μg/mL ([2]; HT29, 100 μg/mL): 94.6% | cytotoxicity at 24 h, 25 μg/mL ([3]; 25 μg/mL): 30.5% | cytotoxicity at 24 h, 50 μg/mL ([3]; 50 μg/mL): 47.2% | cytotoxicity at 24 h, 75 μg/mL ([3]; 75 μg/mL): 49.7% | cytotoxicity at 24 h, 100 μg/mL ([3]; 100 μg/mL): 72.1% | LC50 (concentration causing 50% net cell loss relative to time zero) (MCF7; MCF7, read-out: LC50): > 500 µg/mL | IC (total growth inhibition) (MCF7; MCF7, MTT, read-out: TGI): > 500 µg/mL | LC50 (concentration giving 50% net cell loss relative to time zero) (C6 (Rat brain glioma); read-out: LC50): 217 µg/mL (≈ 510 µM) | IC (total growth inhibition) (C6 (Rat brain glioma); C6, MTT, read-out: TGI): 31.6 µg/mL | LC50 (concentration giving 50% net cell loss relative to time zero) (HT29; HT-29, read-out: LC50): > 500 µg/mL | IC (total growth inhibition) (HT29; HT-29, HT29, MTT, read-out: TGI): > 500 µg/mL | IC (total growth inhibition) (Hep3B; MTT, read-out: TGI): > 500 µg/mL | LC50 (concentration causing 50% net cell loss relative to time zero) (Hep3B; read-out: LC50): > 500 µg/mL | IC (total growth inhibition) (HeLa; MTT, read-out: TGI): > 500 µg/mL | LC50 (concentration causing 50% net cell loss) (HeLa; read-out: LC50): > 500 µg/mL | LC50 (concentration causing 50% net cell loss) (A549; A549, read-out: LC50): > 500 µg/mL | IC (total growth inhibition) (A549; A549, MTT, read-out: TGI): > 500 µg/mL
